The source of these data is patent publication US9782420B2, “Method for treating eye diseases” (Kyoto University, priority 2013, dated 2017).

Experiment [1] deals with CCR2 (monocyte chemoattractant protein 1 (MCP-1) receptor) deficient mice. Put plainly: Experiment 1: Removal of drusen in aged mice. Type of experiment: in vivo. How it is done: Experiment 1: Removal of Drusen in Aged Mice
The effect of the compound of number 32 (Compound 32) to remove previously formed drusen in relatively aged mice was tested. CCR2 (monocyte chemoattractant protein 1 (MCP-1) receptor) deficient mice were used. The mice in the group of Compound 32 (n=30 eyes) were orally administered with 50 mg/kg/day of Compound 32 dissolved in saline five days week from the age of nine months. The mice in the control group (n=48 eyes) were orally administered with the saline. The mice in the both groups were allowed to freely drink water. At the age of 6, 9, 10, 11, 12, 13, 14, and 15 months, the mice were examined by fundus photographs, optical coherence tomography (OCT) (Multiline OCT, Heidelberg Engineering) and electroretinogram (ERG).

For experiment [2], the system named is CCR2 deficient mice. Put plainly: Experiment 2: Suppression of formation of drusen in young mice. Type of experiment: in vivo. The method, then:
Experiment 2: Suppression of Formation of Drusen in Young Mice
The effect of the compound of number 32 (Compound 32) to suppress the formation of the drusen in young mice was tested. CCR2 deficient mice were used. The mice were allowed to freely drink water containing 0.385 mg/ml of Compound 32 from the age of two months. The mice in the control group were allowed to freely drink water not containing Compound 32. At the age of 2, 3.5, 6, and 9 months, the mice were examined by fundus photographs, OCT, and ERG.

For `Cc1cc(F)ccc1-c1ccc(/N=N/c2cc(S(=O)(=O)[O-])c3ccccc3c2N)cn1.[Na+]` [Compound 32, 4-amino-3-[6-(4-fluoro-2-methylphenyl)pyridine-3-ylazo]naphthalene-1-sulfonic acid sodium salt], in experiment [1] (aged CCR2 deficient mice, oral 50 mg/kg/day from age of nine months, age 6 to 15 months, vs saline control), the “numbers of the drusen found in the fundus photographs (FIG. 5)” value is recorded as “the drusen were gradually increased in the control group but not in the mice administered with Compound 32”. The “drusen in fundus photographs (FIGS. 2 to 4)” value in experiment [1] (aged CCR2 deficient mice, oral 50 mg/kg/day in saline five days a week from age of nine months, photographs at age 9 and 15 months) is on record as “the drusen disappeared in the area bounded by the line”. For the same compound, in experiment [1] (mice 1 to 4 administered with Compound 32, oral 50 mg/kg/day from age of nine months), the “time-dependent change of the numbers of the drusen in individual mice (FIG. 6)” value is reported as “gradually decreased after the administration”. The “b-wave amplitudes in the electroretinogram (FIG. 7)” value in experiment [1] (mice at the age of 15 months, oral 50 mg/kg/day from age of nine months, vs control, p=<0.05) is given as “retinal function is better in the mice administered with Compound 32 than in the control mice”. Further, the “a-wave amplitudes in the electroretinogram (FIG. 14)” value in experiment [2] (mice at the age of 9 months, drinking water 0.385 mg/ml from age of two months, vs control, p=<0.001) is recorded as “function of photoreceptor cells is better in the mice administered with Compound 32 than in the control mice”. The “b-wave amplitudes in the electroretinogram (FIG. 13)” value in experiment [2] (mice at the age of 9 months, drinking water 0.385 mg/ml from age of two months, vs control, p=<0.05) is “retinal function is better in the mice administered with Compound 32 than in the control mice”. In addition, the “number of the drusen found in the fundus photographs (FIG. 12)” value in experiment [2] (young CCR2 deficient mice, drinking water 0.385 mg/ml from age of two months, age 2, 3.5, 6 and 9 months, vs control, p=<0.05) is on record as “the drusen were gradually increased in the control group but not in the mice administered with Compound 32”. In experiment [2] (young CCR2 deficient mice, drinking water containing 0.385 mg/ml from age of two months, photographs at age 3.5, 6, and 9 months), the “drusen in fundus photographs (FIGS. 9 to 11)” value was “the drusen did not increase”.
